From a melting point compilation (Tetko et al.; mined from patent text by program, amines drawn as free bases though some values may be those of a salt)

melting point [°C]	SMILES
121 to 122	C[C@@H](NC(=O)[C@H](Cc1ccc(OCc2ccccc2)cc1)NC(=O)[C@@H](N)COCc1ccccc1)C(=O)O
142	C=CCC1(O)CCC2C3CCC4=CC(=O)CCC4C3CCC21Cc1cccc(N(C)C)c1 (stereo unspecified)
250 to 252	O=c1cc(CO)oc2cc(O)ccc12
180 to 181	O=C(N(CCCc1c[nH]c2ccccc12)CCOc1cccc2[nH]c(=O)[nH]c12)C(F)(F)F
110 to 111	Cn1nc(-c2ncc(Cl)cc2F)cc1Br
116 to 117	CC(=O)Oc1ccccc1-c1ccc(C(C)=O)cc1
217 to 218	Nc1nc(-c2cc(Cl)ccc2Cl)nc(N2CCN(C(c3ccccc3)c3ccccc3)CC2)n1
141 to 143	CC(C(=O)O)c1ccc2c(c1)C(=O)Cc1cccnc1S2 (stereo unspecified)
> 270	CCn1c(=O)c2[nH]c(/C=C/c3ccc(-c4ccccc4)cc3)nc2n(CC)c1=O
81 to 82	O=C1N(Cc2cccnn2)c2ccccc2C12COc1cc3c(cc12)CCO3 (stereo unspecified)
226 to 227	O=C(O)c1ccc(F)c(Oc2ccccc2)c1
163 to 165	CCC(CC)Nc1nc(C)nc(N2CCc3cc(Cl)cc(Cl)c32)c1C#N
286 to 288	CC1COc2c(F)c(F)c([N+](=O)[O-])c3c(=O)[nH]c(=O)n1c23 (stereo unspecified)
133	Cn1ncc2c(c1=O)SCCNC2C(=O)Cc1ccccc1 (stereo unspecified)
123 to 125	Cc1cccc(OCC(O)CN2C(=O)C3CCCN3c3ncccc32)c1C (stereo unspecified)
229 to 231	O=C1CCC(N2Cc3cc(CNC(=S)Nc4ccc(SC(F)(F)F)cc4)ccc3C2=O)C(=O)N1 (stereo unspecified)
176 to 178	COc1nc(C)nc(NC(=O)NS(=O)(=O)c2cccnc2Oc2ccccc2)n1
35 to 38	CCCCCCCCCCCCCCCCCCSC(C)CCO (stereo unspecified)
128 to 129	CCCOc1nc(N)nc(-c2ccccc2)c1-c1ccc(=O)n(C(C)C)n1
245 to 246	O=C(O)c1ccc(-c2nc(-c3ccc(OC(F)(F)F)cc3)cs2)cc1
96 to 98	CC(C)(C)OC(=O)C[C@H](NC(=O)CNC(=O)CC1(c2ccc(C(N)=S)cc2)OCCO1)C(=O)N[C@@H](Cc1ccccc1)C(=O)OC(C)(C)C
133 to 135	CNC(=O)C(Cc1ccc(OC)cc1)NC(=O)C(CC(C)C)C(S)CC(=O)OCc1ccccc1 (stereo unspecified)
156 to 157	Fc1ccc(F)c(CN2CCNc3ncc(I)cc32)c1Cl

melting point [°C]	SMILES
100	COc1ccc(S(=O)(=O)N(CCNC(=O)NCc2ccccc2)c2ccc(C)cc2Cc2c(F)cccc2F)cc1OC
132	OC1CSC(Oc2ccc(-c3ccoc3)nc2)C(O)C1O (stereo unspecified)
259 to 262	N#CCCc1cc(C(=O)O)cc(S(N)(=O)=O)c1Oc1ccccc1
150 to 151	C=CCC1(C)OC(=S)Nc2ccc(-c3cccc(Cl)c3)cc21 (stereo unspecified)
218	Cc1cc2c(-c3ccccc3)c(NC(=O)NCc3ccccc3N)n(C)c(=O)c2cc1C
120	CCCNCCCOc1ccc(-c2ccc(C(=O)OCC)cc2)cc1-c1ccc2c(c1)C(C)(C)CCC2(C)C
185 to 186	Cc1c2c(c(C(C)(O)c3ccc(C(C)C)cc3)c(C)c1NC(=O)OC(C)(C)C)OCC2 (stereo unspecified)
108 to 110	C#CCOc1cc(-n2c(OC)nc(C(F)(F)F)cc2=O)c(F)cc1Cl
127 to 128	CC(C)(C)OC(=O)NS(=O)(=O)c1ccc(Br)cc1
92 to 93.5	Clc1ncccc1-c1cccnc1
224 to 225	CC(C)(F)Cn1c(CCO)nc2c(N)nc3cccnc3c21
254 to 256	C/C(=C(\C#N)C(=S)/N=C/N(C)C)N1CCCN(c2ccc(C)c(F)c2)CC1
159 to 162	O=S1(=O)NCN(CCF)c2cc(Cl)c(Br)cc21
> 250	COc1cc2nccc(CC(=O)O)c2cc1OC
47 to 48	CCc1cc(Cl)c(N)c(Cl)c1
87 to 88	CCOC(=O)CC(=O)Cc1ccc(OC)c([N+](=O)[O-])c1
52 to 53	C(CCCN1CCCNC1)CCCN1CCCNC1
73.5 to 76	CNc1cnc(N2CCOCC2)cc1-c1ccccc1C
188 to 190	CCC(Oc1ccc(C(C)(C)CC)cc1C(C)(C)CC)C(=O)Nc1cc(OC(C)=O)c(C)c(Cl)c1O (stereo unspecified)
158 to 160	NC(=O)COC(=O)c1c(Cl)ccc(Cl)c1Cl
111 to 112	CCN1CCCN(c2cc(Cl)ccc2C)C1=S
172 to 174	CN[C@@]1(C)CCN(c2c(-c3ccccc3)c(C)c(C#N)c3nc(C(=O)N(C)C)oc23)C1
131 to 133	CC(=O)OCc1ccccc1S(N)(=O)=O

melting point [°C]	SMILES
214 to 216	Cc1ccccc1N1CCN(CCn2c(=O)[nH]c3cscc3c2=O)CC1
136 to 138	CC(=O)OCc1cc(N)ccc1N1C(=O)c2ccc(Cl)cc2C1=O
198 to 199	c1csc(NCCc2c[nH]cn2)n1
69 to 70	O=C(Cc1ccc(Br)cc1)c1ccc(Cl)cc1Cl
188 to 189	Cn1c(CNCC(C)(C)O)cc2cc(NC(=O)c3ccc(OCC4CC4)cc3)ccc21
180 to 183	COc1c(C)c2c(c(OC(C)=O)c1C/C=C/c1c(C)cccc1C(=O)O)C(=O)OC2
162 to 163	Cc1oc(-c2ccccc2)nc1COc1ccc(CC2SC(=O)NC2=O)cc1 (stereo unspecified)
163 to 165	CCOc1ccc(S(=O)(=O)N2CCNCC2)cc1-c1nc2c(OC)cccc2c(=O)[nH]1
181 to 186	COc1ccc(Nc2ccc(Nc3ncnc4ccsc34)cc2)cc1
216 to 219	COc1cc(NS(=O)(=O)c2ccc(Cl)cc2)c(C(=O)Nc2ccc(S(=O)(=O)F)cc2)cc1OC
211 to 213	O=c1[nH]c(CCc2ccccc2OCc2ccccc2)ccc1-c1nnn[nH]1
107 to 108	Cc1ccc(C#Cc2cnc(-c3ccc(C(F)(F)F)cc3)s2)s1
51	COC(=O)CSc1cccc(CNC(=O)C2Cc3ccccc3N2S(=O)(=O)c2ccc(-c3cccc(C(F)(F)F)c3)cc2)c1 (stereo unspecified)
146 to 148	COc1ccc(-c2cc(=S)n(C)c(=O)n2C)cc1OC
79 to 82.5	CCCCCCn1c(C)cc(C)c(C(=O)O)c1=O
190 to 192	CCc1cc(O)c2cccc(OC)c2n1
194 to 198	CC(C)(C)n1ncc(N)c(Cl)c1=O
143 to 145	CC(C)(C)c1ccc(C(=O)c2ccc3n2Cc2ccccc2N(C(=O)c2ccc(C4CCCCC4)cc2)C3)cc1
75	C=Cc1cc(Br)c(O)c(Br)c1
159 to 160	CCCc1nn(C)c2c(=O)[nH]c(-c3cc(C(=O)CBr)ccc3OCC)nc12
110 to 112	CCOC(=O)C=C1CCC(C#N)(c2ccc(OC)c3c2OCCO3)CC1 (stereo unspecified)
215 to 216	COc1ccc(C=CC(=O)Nc2ccccc2C(=O)O)cc1O

SMILES	melting point [°C]
O=C1NCN(c2ccccc2)C12CCN(CC1=Cc3cc(Cl)ccc3CC1)CC2	191 to 192
CCCCOC(=O)c1ccccc1OC(=O)N(C)SN(C)C(=O)ON=C(C)SC	68 to 74
CCCc1cc2c(s1)[C@@H](O)[C@H]1C[C@]2(O)C(=O)O1	120 to 125
